Experimental data published in patent US11306092B2, “Amino indole compounds useful as TLR inhibitors” (BRISTOL-MYERS SQUIBB COMPANY, priority 2017, dated 2022).

Assays:
Type in all cases: cell-based
[1] = target: T1, human TLR7 (Homo sapiens, UniProt Q9NYK1); assay: TLR7 inhibition reporter assay (HEK-Blue SEAP reporter); conditions: HEK-Blue cells overexpressing human TLR7; gardiquimod 7.5 μM; 22 hour incubation
T1 construct: host or cells: HEK-Blue cells
T1 sequence (Q9NYK1 27-1049): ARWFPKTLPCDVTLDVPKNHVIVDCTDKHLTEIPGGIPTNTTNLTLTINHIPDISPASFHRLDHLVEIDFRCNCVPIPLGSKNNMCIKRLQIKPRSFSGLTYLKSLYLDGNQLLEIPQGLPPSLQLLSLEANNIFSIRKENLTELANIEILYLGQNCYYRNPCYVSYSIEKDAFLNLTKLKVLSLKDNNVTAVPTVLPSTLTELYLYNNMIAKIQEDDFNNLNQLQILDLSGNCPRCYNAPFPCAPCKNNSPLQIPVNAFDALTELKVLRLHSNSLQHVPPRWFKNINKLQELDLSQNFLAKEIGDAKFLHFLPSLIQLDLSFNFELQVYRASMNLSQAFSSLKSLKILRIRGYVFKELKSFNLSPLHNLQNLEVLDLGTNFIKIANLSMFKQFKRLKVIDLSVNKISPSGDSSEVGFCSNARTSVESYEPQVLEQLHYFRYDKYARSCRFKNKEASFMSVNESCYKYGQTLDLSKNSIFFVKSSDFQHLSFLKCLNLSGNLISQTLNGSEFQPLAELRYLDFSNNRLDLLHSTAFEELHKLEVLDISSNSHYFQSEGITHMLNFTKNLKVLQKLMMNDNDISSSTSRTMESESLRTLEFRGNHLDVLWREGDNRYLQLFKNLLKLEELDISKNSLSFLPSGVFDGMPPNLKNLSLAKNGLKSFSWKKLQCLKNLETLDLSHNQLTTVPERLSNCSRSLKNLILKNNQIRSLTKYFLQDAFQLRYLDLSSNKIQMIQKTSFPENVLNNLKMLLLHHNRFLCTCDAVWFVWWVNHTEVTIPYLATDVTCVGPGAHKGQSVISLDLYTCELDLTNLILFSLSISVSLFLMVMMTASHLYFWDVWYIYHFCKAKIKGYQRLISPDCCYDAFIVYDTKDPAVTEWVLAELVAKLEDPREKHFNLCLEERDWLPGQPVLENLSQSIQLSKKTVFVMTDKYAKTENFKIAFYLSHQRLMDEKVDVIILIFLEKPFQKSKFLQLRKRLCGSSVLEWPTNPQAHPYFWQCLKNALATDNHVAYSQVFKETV
Outline: (§1)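 Compound treatment: 30 min, RT, 0.05 nM–50 μM final. Agonist: TLR7 gardiquimod 7.5 μM; TLR8 R848 15.9 μM; TLR9 ODN2006 5 nM. Incubation 22 h, 37 °C, 5% CO2. Readout SEAP, HEK-Blue Detection.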

[2] = target: T2, human TLR8 (Homo sapiens, UniProt Q9NR97); assay: TLR8 inhibition reporter assay (HEK-Blue SEAP reporter); conditions: HEK-Blue cells overexpressing human TLR8; R848 15.9 μM; 22 hour incubation
T2 construct: host or cells: HEK-Blue cells
T2 sequence (Q9NR97 27-1041): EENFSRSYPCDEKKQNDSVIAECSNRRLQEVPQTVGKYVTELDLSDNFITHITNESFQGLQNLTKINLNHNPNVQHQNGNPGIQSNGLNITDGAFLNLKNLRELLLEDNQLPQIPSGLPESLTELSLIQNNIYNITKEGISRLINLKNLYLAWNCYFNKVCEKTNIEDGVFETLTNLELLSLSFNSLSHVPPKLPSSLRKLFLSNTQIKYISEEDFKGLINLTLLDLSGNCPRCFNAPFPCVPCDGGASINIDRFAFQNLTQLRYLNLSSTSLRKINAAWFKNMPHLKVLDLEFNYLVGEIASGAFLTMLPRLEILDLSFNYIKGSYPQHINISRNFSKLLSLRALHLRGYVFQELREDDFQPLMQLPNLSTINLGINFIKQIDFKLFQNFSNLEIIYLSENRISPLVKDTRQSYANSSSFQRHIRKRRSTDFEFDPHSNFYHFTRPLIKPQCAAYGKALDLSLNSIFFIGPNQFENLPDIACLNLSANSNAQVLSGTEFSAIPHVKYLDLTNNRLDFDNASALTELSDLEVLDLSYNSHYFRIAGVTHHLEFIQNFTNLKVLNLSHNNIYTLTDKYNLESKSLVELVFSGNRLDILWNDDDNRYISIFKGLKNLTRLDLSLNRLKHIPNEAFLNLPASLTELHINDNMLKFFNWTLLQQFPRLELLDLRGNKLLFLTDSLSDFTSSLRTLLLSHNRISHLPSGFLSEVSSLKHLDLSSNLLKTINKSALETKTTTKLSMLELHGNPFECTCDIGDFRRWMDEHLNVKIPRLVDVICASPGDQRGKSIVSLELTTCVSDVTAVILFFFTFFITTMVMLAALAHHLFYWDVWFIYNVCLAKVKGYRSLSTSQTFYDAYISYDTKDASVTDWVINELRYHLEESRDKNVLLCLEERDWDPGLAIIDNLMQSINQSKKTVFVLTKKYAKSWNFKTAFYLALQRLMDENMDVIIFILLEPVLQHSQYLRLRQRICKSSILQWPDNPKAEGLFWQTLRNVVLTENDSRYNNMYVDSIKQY
Outline: as §1

[3] = target: T3, human TLR9 (Homo sapiens, UniProt Q9NR96); assay: TLR9 inhibition reporter assay (HEK-Blue SEAP reporter); conditions: HEK-Blue cells overexpressing human TLR9; ODN2006 5 nM; 22 hour incubation
T3 construct: host or cells: HEK-Blue cells
T3 sequence (Q9NR96 26-1032): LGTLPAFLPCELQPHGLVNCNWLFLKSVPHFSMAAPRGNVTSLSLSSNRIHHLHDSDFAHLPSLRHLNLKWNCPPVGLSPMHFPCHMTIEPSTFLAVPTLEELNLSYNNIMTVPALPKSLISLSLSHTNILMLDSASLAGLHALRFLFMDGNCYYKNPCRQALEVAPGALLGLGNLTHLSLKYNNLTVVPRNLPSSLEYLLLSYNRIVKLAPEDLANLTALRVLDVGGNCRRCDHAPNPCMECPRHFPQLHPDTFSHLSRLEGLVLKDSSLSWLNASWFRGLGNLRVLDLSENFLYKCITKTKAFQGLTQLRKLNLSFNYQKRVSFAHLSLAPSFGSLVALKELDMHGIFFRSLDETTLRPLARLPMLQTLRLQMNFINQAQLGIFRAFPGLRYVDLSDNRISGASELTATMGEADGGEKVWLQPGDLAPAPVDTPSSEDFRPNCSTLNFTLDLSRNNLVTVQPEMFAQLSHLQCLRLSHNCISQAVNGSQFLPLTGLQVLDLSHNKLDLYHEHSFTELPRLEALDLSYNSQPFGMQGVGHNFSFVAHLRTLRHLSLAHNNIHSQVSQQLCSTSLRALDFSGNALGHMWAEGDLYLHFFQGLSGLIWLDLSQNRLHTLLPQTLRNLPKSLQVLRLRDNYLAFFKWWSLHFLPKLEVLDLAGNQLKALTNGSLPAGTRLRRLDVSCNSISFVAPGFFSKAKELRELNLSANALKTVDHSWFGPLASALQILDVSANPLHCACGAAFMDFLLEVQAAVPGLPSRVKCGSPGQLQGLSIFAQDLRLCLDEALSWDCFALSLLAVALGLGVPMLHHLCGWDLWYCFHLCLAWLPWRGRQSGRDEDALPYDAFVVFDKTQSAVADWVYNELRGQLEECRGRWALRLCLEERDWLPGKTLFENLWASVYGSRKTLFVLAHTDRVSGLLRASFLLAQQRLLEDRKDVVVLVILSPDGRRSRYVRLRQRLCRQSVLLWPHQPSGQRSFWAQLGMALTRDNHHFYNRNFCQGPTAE
Outline: as §1

Row | IC50 [1] | IC50 [2] | IC50 [3] | Compound
1 | 106 nM | 14 nM | 470 nM | CCc1c(-c2ccnc(OC)c2)[nH]c2ccc(N3CCN(C4CCN(CC(C)C)CC4)CC3)cc12 [Example 160, 3-ethyl-5-(4-(1-isobutylpiperidin-4-yl)piperazin-1-yl)-2-(2-methoxypyridin-4-yl)-1H-indole]
2 | 63 nM | 8.1 nM | 243 nM | CCc1c(-c2ccnc(OC)c2)[nH]c2ccc(N3CCN(C4CC(C)(C)NC(C)(C)C4)CC3)cc12 [Example 161, 3-ethyl-2-(2-methoxypyridin-4-yl)-5-(4-(2,2,6,6-tetramethylpiperidin-4-yl)piperazin-1-yl)-lH-indole]
3 | 30 nM | 7.9 nM | 935 nM | COc1ccc(-c2[nH]c3ccc(N4CCN(C5CCN(C)CC5)CC4)cc3c2C(C)C)cc1OC [Example 162, 2-(3,4-dimethoxyphenyl)-3-isopropyl-5-(4-(1-methylpiperidin-4-yl)piperazin-1-yl)-1H-indole]
4 | 68 nM | 9.3 nM | 709 nM | CCc1c(-c2ccc(OC)c(OC)c2)[nH]c2ccc(N3CCN(C4CCN(CC)CC4)CC3)cc12 [Example 163, 2-(3,4-dimethoxyphenyl)-3-ethyl-5-(4-(1-ethylpiperidin-4-yl)piperazin-1-yl)-1H-indole]
5 | 7090 nM | > 50000 nM | 577 nM | COc1ccc(-c2[nH]c3ccc(N4CCN(C5CCN(C(C)C)CC5)CC4)cc3c2C)cc1OC [Example 164, 2-(3,4-dimethoxyphenyl)-5-(4-(1-isopropylpiperidin-4-yl)piperazin-1-yl)-3-methyl-1H-indole]
6 | 5900 nM | 9400 nM | 685 nM | CCc1c(-c2ccnc3c2ccn3C)[nH]c2ccc(N3CCN(C4CCN(C(C)C)CC4)CC3)cc12 [Example 165, 4-(3-ethyl-5-(4-(1-isopropylpiperidin-4-yl)piperazin-1-yl)-1H-indol-2-yl)-1-methyl-H-pyrrolo[2,3-b] pyridine]
7 | 6.2 nM | 0.05 nM | 318 nM | CC(C)c1c(-c2ccnc3[nH]ccc23)[nH]c2ccc(N3CCN(C4CCN(C(C)C)CC4)CC3)cc12 [Example 166, 4-(3-isopropyl-5-(4-(1-isopropylpiperidin-4-yl)piperazin-1-yl)-1H-indol-2-yl)-1H-pyrrolo[2,3-b]pyridine]
8 | > 50000 nM | 48000 nM | 259 nM | CC(C)c1c(-c2ccnc3[nH]ncc23)[nH]c2ccc(N3CCN(C4CCN(C(C)C)CC4)CC3)cc12 [Example 168, 4-(3-isopropyl-5-(4-(1-isopropylpiperidin-4-yl)piperazin-1-yl)-1H-indol-2-yl)-1H-pyrazolo[3,4-b]pyridine]
9 | 61 nM | 10 nM | 442 nM | CCc1c(-c2ccc(OC)c(OC)c2)[nH]c2ccc(N3CCN(C4CCN(C(C)C)CC4)CC3)cc12 [Example 169, 2-(3,4-dimethoxyphenyl)-3-ethyl-5-(4-(1-isopropylpiperidin-4-yl)piperazin-1-yl)-1H-indole]
10 | 19100 nM | 48400 nM | 465 nM | COc1ccc(-c2[nH]c3ccc(N4CCN(C5CCN(CC(C)C)CC5)CC4)cc3c2C)cc1OC [Example 170, 2-(3,4-dimethoxyphenyl)-5-(4-(1-isobutylpiperidin-4-yl)piperazin-1-yl)-3-methyl-1H-indole]
11 | 8990 nM | 32200 nM | 379 nM | COc1ccc(-c2[nH]c3ccc(N4CCN(C5CC(C)(C)NC(C)(C)C5)CC4)cc3c2C)cc1OC [Example 171, 2-(3,4-dimethoxyphenyl)-3-methyl-5-(4-(2,2,6,6-tetramethylpiperidin-4-yl)piperazin-1-yl)-1H-indole]
12 | 96 nM | 131 nM | 478 nM | CCc1c(-c2ccc(OC)c(OC)c2)[nH]c2ccc(N3CCN(C4CCN(C)CC4)CC3(C)C)cc12 [Example 172, 2-(3,4-dimethoxyphenyl)-5-(2,2-dimethyl-4-(1-methylpiperidin-4-yl)piperazin-1-yl)-3-ethyl-1H-indole]
13 | 59 nM | 9.8 nM | 673 nM | CCc1c(-c2cc(OC)nc(OC)c2)[nH]c2ccc(N3CCN(C4CCN(C(C)C)CC4)CC3)cc12 [Example 173, 2-(2,6-dimethoxypyridin-4-yl)-3-ethyl-5-(4-(1-isopropylpiperidin-4-yl)piperazin-1-yl)-1H-indole]
14 | 7.5 nM | 11 nM | 261 nM | Cc1cc2[nH]c(-c3ccnc4[nH]ncc34)c(C(C)C)c2cc1N1CCN(C2CCN(C(C)C)CC2)CC1 [Example 175, 4-(3-isopropyl-5-(4-(1-isopropylpiperidin-4-yl)piperazin-1-yl)-6-methyl-1H-indol-2-yl)-1H-pyrazolo[3,4-b]pyridine]
15 | 68 nM | 28 nM | 866 nM | CCc1c(-c2ccc(OC)c(OC)c2)[nH]c2ccc(N3CCN(C4CC(C)(C)NC(C)(C)C4)CC3)cc12 [Example 176, 2-(3,4-dimethoxyphenyl)-3-ethyl-5-(4-(2,2,6,6-tetramethylpiperidin-4-yl)piperazin-1-yl)-1H-indole]
